Some test systems named below: A498; SF-295; SW-620; RXF 393; NCI/ADR-RES; SK-MEL-5; T47D; MDA-MB-231; TK-10; OVCAR-5; HOP-92; SNB-75; UO-31; DU-145; KM12; CCRF-CEM; UACC-257; SF-268; SK-MEL-2; SF-539.
What all share (assay): growth of human tumour cells (NCI), 48 h

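Protocol summary: plate cells (96-well), add compound at 5 concentrations, incubate 48 h, interpolate endpoints linearly. GI50 is the concentration that inhibits growth by half.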 The source made the active and inactive calls. Rule as the data show it: active = GI50 up to about 1.1 µM and inactive = higher.

Data on 11 compounds can be found in ChEMBL document CHEMBL1201862, “PubChem BioAssay data set” (2004).

Regarding `Cc1cc(Cc2cc(Cc3cc(C)cc(C(C)(C)C)c3O)c(C)cc2C)c(O)c(C(C)(C)C)c1`, the GI50 in the test on A498 was 16.1 µM (inactive); in the test with SF-295 it was 18.9 µM (inactive); in the test on SW-620, 17.9 µM (inactive); with RXF 393 it was 12 µM (inactive); in the test on NCI/ADR-RES, 17.9 µM (inactive); in the test with SK-MEL-5 it was 16.6 µM (inactive). The GI50 with T47D was 14 µM (inactive); in the test with MDA-MB-231, > 100 µM (inactive); with TK-10, 24.1 µM (inactive); in the test on OVCAR-5, 19.6 µM (inactive); in the test with HOP-92, 13.2 µM (inactive); in the test with SNB-75 it was 11.2 µM (inactive). The GI50 with UO-31 was 18.1 µM (inactive); in the test with DU-145, 14.5 µM (inactive); with KM12 it was 16.6 µM (inactive); with CCRF-CEM it was 16 µM (inactive); in the test on UACC-257 it was 16.2 µM (inactive); with SF-268 it was 15.9 µM (inactive). The GI50 in the test on SK-MEL-2 is > 100 µM (inactive).

Consider `CO/N=C\c1ccc2c(c1)Sc1ccccc1O2`, for which the GI50 in the test with A498 was > 100 µM (inactive); with SF-295 it was 36.3 µM (inactive); in the test with SW-620 it was 73.8 µM (inactive); with RXF 393, 27.5 µM (inactive); in the test with NCI/ADR-RES it was 90.6 µM (inactive); with T47D, 24.5 µM (inactive). The GI50 was > 100 µM (inactive) with MDA-MB-231; > 100 µM (inactive) in the test with TK-10; 48.2 µM (inactive) in the test on OVCAR-5; 40.7 µM (inactive) in the test on SF-539; 36.4 µM (inactive) with HOP-92; 52.5 µM (inactive) in the test with SNB-75. Further, the GI50 with UO-31 was 58.3 µM (inactive); in the test on DU-145, > 100 µM (inactive); in the test with KM12, 42.3 µM (inactive); in the test on UACC-257, 57 µM (inactive); in the test with SF-268 it was 72.3 µM (inactive); with SK-MEL-2 it was 35.1 µM (inactive).

Take `O=C(CSCC(=O)N/N=C/c1cc(I)cc(I)c1O)N/N=C/c1cc(I)cc(I)c1O`: the GI50 in the test with A498 is 9.04 µM (inactive); in the test with SF-295, 13.6 µM (inactive); in the test with SW-620, 13.6 µM (inactive); in the test on RXF 393 it was 10.6 µM (inactive); with NCI/ADR-RES, 17.2 µM (inactive); in the test on SK-MEL-5 it was 10.6 µM (inactive). Also, the GI50 in the test on T47D is 34.3 µM (inactive); in the test on MDA-MB-231, 7.18 µM (inactive); in the test with TK-10 it was 7.4 µM (inactive); with OVCAR-5 it was 39.5 µM (inactive); with SF-539, 7.57 µM (inactive); in the test on HOP-92 it was 39.5 µM (inactive). Further, the GI50 in the test with SNB-75 was 5.65 µM (inactive); in the test on UO-31, 13.2 µM (inactive); with DU-145, 17.7 µM (inactive); in the test with KM12 it was 25.8 µM (inactive); in the test with UACC-257 it was 22.4 µM (inactive); in the test with SF-268 it was 4.34 µM (inactive). Besides, in the test with SK-MEL-2, the GI50 was 23.7 µM (inactive).

Turning to `Cn1c(=O)c2nc(CCNC(=O)c3ccccc3)[nH]c2n(C)c1=O`, the GI50 in the test with A498, with SF-295, in the test with SW-620, in the test with RXF 393, in the test with NCI/ADR-RES and in the test with SK-MEL-5 was > 100 µM (inactive) each time. Also, the GI50 in the test with T47D, in the test on MDA-MB-231, in the test on TK-10, in the test on OVCAR-5, in the test on HOP-92 and in the test on SNB-75 was > 100 µM (inactive) throughout. The GI50 in the test with UO-31, with DU-145, in the test on KM12, in the test on CCRF-CEM, with UACC-257 and with SF-268 was > 100 µM (inactive) throughout. Besides, the GI50 in the test on SK-MEL-2 is > 100 µM (inactive).

With `Oc1ccc(/C=N/CC2CCCN3CCCCC23)cc1` (centres undefined), the GI50 was 26.5 µM (inactive) with A498; 26.1 µM (inactive) in the test on SF-295; 20 µM (inactive) in the test on RXF 393; 46.8 µM (inactive) in the test with NCI/ADR-RES; 20.5 µM (inactive) in the test with SK-MEL-5; 31.3 µM (inactive) in the test on T47D. Also, the GI50 with MDA-MB-231 is 28.8 µM (inactive); in the test on TK-10 it was 23.4 µM (inactive); in the test with OVCAR-5, 31.3 µM (inactive); with SF-539, 62.1 µM (inactive); in the test on HOP-92, 24.2 µM (inactive); in the test on SNB-75, 51.8 µM (inactive). For the same compound, the GI50 was 23.1 µM (inactive) with UO-31; 16 µM (inactive) with DU-145; 16.4 µM (inactive) in the test on KM12; 24.3 µM (inactive) in the test on UACC-257; 24.5 µM (inactive) in the test on SF-268; 19.5 µM (inactive) in the test with SK-MEL-2.

On to `NC(=O)C[S+]([O-])CC(N)C(=O)O` (centres undefined), for which the GI50 with A498, in the test on SF-295, with SW-620, in the test with RXF 393, with NCI/ADR-RES and in the test on SK-MEL-5 was > 100 µM (inactive) each time. Moreover, the GI50 in the test on T47D, in the test with MDA-MB-231, in the test with TK-10, in the test on OVCAR-5, in the test on HOP-92 and in the test with SNB-75 was > 100 µM (inactive) in each case. For the same compound, the GI50 in the test with UO-31, in the test on DU-145, in the test with KM12, with UACC-257, with SF-268 and in the test with SK-MEL-2 was > 100 µM (inactive) each time.

Regarding `O=C(N/N=C(COc1ccccc1Cl)\N=C\c1ccncc1)c1ccncc1`, the GI50 in the test with A498, with SF-295, with SW-620, in the test with RXF 393, with NCI/ADR-RES and in the test on T47D was > 100 µM (inactive) each time. Further, the GI50 in the test on MDA-MB-231 is > 100 µM (inactive); in the test with TK-10, > 100 µM (inactive); with OVCAR-5, > 100 µM (inactive); with SF-539, > 100 µM (inactive); with HOP-92, > 100 µM (inactive); in the test with SNB-75, 15.9 µM (inactive). Moreover, the GI50 in the test with DU-145, in the test with KM12, in the test with CCRF-CEM, with UACC-257, with SF-268 and with SK-MEL-2 was > 100 µM (inactive) each time.

`O=CNNC(=O)Nc1ccc(Cl)cc1`: the GI50 in the test with A498 was 29.6 µM (inactive); in the test with SF-295, 33.7 µM (inactive); in the test with SW-620, > 100 µM (inactive); in the test with RXF 393, > 100 µM (inactive); in the test on NCI/ADR-RES, > 100 µM (inactive); in the test on SK-MEL-5, > 100 µM (inactive). In addition, the GI50 was > 100 µM (inactive) in the test on T47D; > 100 µM (inactive) in the test with MDA-MB-231; > 100 µM (inactive) with TK-10; > 100 µM (inactive) in the test with OVCAR-5; > 100 µM (inactive) in the test on SF-539; 26.9 µM (inactive) in the test on HOP-92. The GI50 was > 100 µM (inactive) in the test on SNB-75; 68.7 µM (inactive) with UO-31; > 100 µM (inactive) with DU-145; > 100 µM (inactive) in the test with KM12; > 100 µM (inactive) in the test on CCRF-CEM; > 100 µM (inactive) in the test on UACC-257. Also, in the test on SF-268, the GI50 is > 100 µM (inactive).

`CCOC(=O)c1c(C)nc2c(c1-c1cn(-c3ccccc3)nc1-c1ccccc1)C(=O)c1ccccc1-2`: the GI50 in the test with A498, in the test with SF-295, in the test with SW-620, in the test with RXF 393, in the test with NCI/ADR-RES and in the test with SK-MEL-5 was > 100 µM (inactive) in each case. Further, the GI50 with T47D, in the test with MDA-MB-231, in the test with TK-10, with OVCAR-5, in the test with HOP-92 and with SNB-75 was > 100 µM (inactive) throughout. Also, the GI50 in the test with DU-145 was > 100 µM (inactive); in the test with KM12, 0.337 µM (active); with CCRF-CEM it was > 100 µM (inactive); with UACC-257, > 100 µM (inactive); in the test with SF-268, > 100 µM (inactive); in the test on SK-MEL-2 it was > 100 µM (inactive).

`CC(N)C(C)Cc1ccccc1` (centres undefined): the GI50 in the test with A498, in the test with SF-295, with SW-620, with RXF 393, with NCI/ADR-RES and in the test with SK-MEL-5 was > 100 µM (inactive) in each case. For the same compound, the GI50 is > 100 µM (inactive) in the test on T47D; > 100 µM (inactive) in the test with MDA-MB-231; > 100 µM (inactive) with TK-10; > 100 µM (inactive) with OVCAR-5; 64.4 µM (inactive) in the test with HOP-92; > 100 µM (inactive) in the test on SNB-75. Also, the GI50 in the test on UO-31, in the test with DU-145, in the test with KM12, with UACC-257 and with SF-268 was > 100 µM (inactive) throughout.

Take `C=CCc1cccc2cc(C(N)=O)c(=N)oc12`: the GI50 with A498 was 77.3 µM (inactive); in the test with SW-620, > 100 µM (inactive); in the test with RXF 393 it was > 100 µM (inactive); in the test on NCI/ADR-RES, > 100 µM (inactive); in the test on SK-MEL-5, > 100 µM (inactive); in the test on T47D it was 41.5 µM (inactive). For the same compound, the GI50 was > 100 µM (inactive) in the test on MDA-MB-231; > 100 µM (inactive) in the test on OVCAR-5; 68.7 µM (inactive) in the test with HOP-92; 54.7 µM (inactive) with SNB-75; > 100 µM (inactive) in the test on DU-145; > 100 µM (inactive) in the test with KM12. Also, the GI50 was 52.8 µM (inactive) with CCRF-CEM, > 100 µM (inactive) with UACC-257, > 10 µM (inactive) with SF-268 and 99.5 µM (inactive) in the test on SK-MEL-2.
